Values of other authors as cited in patent US20070287647A1, “Nail Polish Remover” (priority 2006, published 2007).

Settings: in vapor

CC#N [acetonitrile]
inhalation toxicity level: about 60 ppm
